Legend:
apo-MCR-1-S = apo-MCR-1-S (Escherichia coli, UniProt A0A0R6L508); assay: biochemical
Procedure: The apo-MCR-1-S without any tag was diluted into proper concentration for ITC assay. […] The stoichiometry of metal binding and binding affinities were obtained by fitting the data with proper equations and these assays were performed in triplicate.

MCR-1 = target: T1, MCR-1 (Escherichia coli, UniProt A0A0R6L508); format: cell-based, E. coli BL21(DE3); conditions: overnight exposure, in cellulo
T1 construct: solvable truncated MCR-1 fragment (200-541 aa) but without any tag; expressed in transfected cells; host or cells: E. coli BL21(DE3)
T1 sequence (A0A0R6L508 200-541): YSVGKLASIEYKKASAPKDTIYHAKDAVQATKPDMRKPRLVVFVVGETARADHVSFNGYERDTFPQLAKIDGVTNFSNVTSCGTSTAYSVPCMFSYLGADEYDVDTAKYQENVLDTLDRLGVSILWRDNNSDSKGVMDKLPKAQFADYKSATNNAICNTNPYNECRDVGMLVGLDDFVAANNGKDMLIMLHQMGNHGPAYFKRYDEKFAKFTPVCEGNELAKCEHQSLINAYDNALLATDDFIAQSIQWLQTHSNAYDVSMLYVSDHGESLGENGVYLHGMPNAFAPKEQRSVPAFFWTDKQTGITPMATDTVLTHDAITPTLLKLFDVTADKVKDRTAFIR
Procedure: Considering that MCR-1 is a transmembrane protein, we constructed a plasmid with solvable truncated MCR-1 fragment (200-541 aa) but without any tag and then transferred it into E. coli BL21(DE3). The cellular thermal shift assay was performed according to a general standard method. […] The bacterial pellets were harvested and washed with PBS for 3 times. The cell suspensions were aliquoted into PCR tubes and heat treatment was performed at the designated temperature for 3 mins in a 96-well thermal cycler. The tubes were cooled immediately at 25° C., and the heat treatments were repeated for three cycles. For the cell lysis, the samples were frozen-thawed in liquid nitrogen and thermal cycler was set at 25° C. The samples were vortexed gently after each cycle and centrifuged at 20,000×g to obtain the supernatant. All the samples were subjected to SDS-PAGE gel and electrotransferred to a PVDF membrane (Hybond-P, GE Healthcare). A PageRuler Prestained Protein Ladder #26616 (Thermo) was used as a standard marker.

MCR-producing E. coli [1] = format: cell-based
Procedure: (§1) MIC values of either antibiotics or Bi(III) compounds were determined firstly by standard broth micro-dilution method (Clinical and Laboratory Standards Institute (CLSI) M100-S20, 2010). Briefly, bacteria cells were cultured in LB broth overnight at 37° C. at 250 rpm and the optical density was measured at 600 nm (OD600) using a microtiter plate reader. The bacterial density was adjusted to about 1×10^6 CFU mL^−1 and checked by CFU counting on agar plates afterwards. Tested compounds were added triplicately into individual wells of flat-bottomed 96-well plates and performed two-fold serial dilution, followed by addition of prepared bacterial inoculum. The plate was then incubated at 37° C. overnight. Lanes with no antibiotics or bismuth compounds served as positive controls and lanes with no bacteria added served as negative controls. The MIC was determined as the lowest concentration of compounds that could inhibit the growth of microorganism by both visual reading and OD600 measurement.
(§2) Other procedures and the check of MIC were kept strictly the same. […] Synergism was defined as FICI≤0.5, indifference was defined as FICI>0.5 and <4, and antagonism was defined as FICI≥4. All of the determinations were performed at least in triplicate on different days.

MCR-1-negative E. coli = format: cell-based; conditions: MCR-1-negative E. coli strain
Procedure: as §1, §2

[2] = test system: K. pneumoniae 9607 (MCR-1+); assay: Murine infection model, bacterial loads in liver and spleen; format: in vivo, mice; conditions: monotherapy, single i.p. dose 1 hr post-infection, 48 hrs; colistin 2 mg kg^−1, auranofin 0.5 mg kg^−1, AgNO3 1.5 mg kg^−1
Procedure: For local infection experiment, an overnight culture of K. pneumoniae 9607 (MCR-1^+) was performed 1:250 dilution in LB broth and re-grew to about OD600 0.5 at 37° C., 250 rpm. Bacterial pellets were collected and washed by PBS buffer three times for further use. Mice were infected intraperitoneally (i.p.) with a dose of 2×10^6 CFU of bacteria in PBS. […] All the mice were scarified at 48 hrs following systemic infection, and bacterial loads in livers and spleens were examined by agar plating. […] Body weights and mice survival were monitored till endpoint of the experiment.

S. flexneri (MCR-1+) = format: cell-based; conditions: MCR-1 positive S. flexneri; AgNO3 10 μM, auranofin 3 μM, Au(PEt3)Cl 3 μM; untreated 4.1, MCR-1 negative 6.1
Procedure: Membrane potential assay was carried out based on a modified method according to manufacturer's instructions. […] The bacterial pellets were then resuspended in PBS supplemented with DiOC2 (30 μM) and stained at 37° C. for 30 mins. Stained bacteria were then assayed in a flow cytometer and the signals from FITC-A (488 nm, green gate) and PI-A (633 nm, red gate) were collected and then analyzed. S. flexneri without treatment served as the control.

MCR-1-producing E. coli = assay: Mutant prevention concentration (MPC) test; format: cell-based; conditions: for mutant colonies: colistin alone at 16×MIC, or colistin with 30 μg mL^−1 of the compound; for MPI of colistin (MPC/MIC): in presence of 30 μg mL^−1 of the compound
Text: Given the very notion of MIC, all susceptible bacterial cells are suppressed or killed by a dose above it. […] The dose of compounds at MIC adversely amplifies the population of those less-susceptible mutants. Thus, mutant prevention concentration (MPC), defined as a compound concentration that suppresses the growth of first-step resistant mutant in large quantity of susceptible bacterial population, together with mutant prevention index (MPI=MPC/MIC), is introduced to estimate the mutant prevention ability of exemplary compound combination. […] All the plates were incubated at 37° C. Upon incubation for 48 hours, up to 4 colonies were picked and re-cultured from any plates with observable colonies, followed by the measurement of their MIC values. […] The concentration that restricted the growth of mutant colonies was determined as MPC.

E. coli CKE = assay: Murine systemic infection model, survival assay; format: in vivo, mice; conditions: for mice rescued from death: combination with colistin 1 mg kg^−1, single i.p. dose 0.5 hr post infection; for protection of mice from death: mono-therapy, AgNO3 0.75 mg kg^−1 or auranofin 0.25 mg kg^−1 i.p., within 72 hours
MCR-producing E. coli [3] = assay: In vitro serial passage resistance assay; format: cell-based; conditions: colistin combined with the compound
Procedure: The in vitro passage assay was also conducted to evaluate the antimicrobial durability of the combination. In a typical experiment, an overnight culture of MCR-producing E. coli was diluted to 10^7 CFU mL^−1 in LB broth. […] All the plates were incubated at 37° C. and the growth of cultures was checked at 24 h intervals. Cultures from the second highest concentrations that allowed growth were performed 1:1000 dilution into fresh medium supplemented with the same concentrations of drugs. For colistin, 1-fold of MIC was set as 4 μg mL^−1. This in vitro passage was repeated for 20 days. MIC of MER was determined every four passages.

Zn(II)-MCR-1-S = Zn(II)-MCR-1-S (Escherichia coli, UniProt A0A0R6L508); conditions: PAR assay
Chain of Zn(II)-MCR-1-S (A0A0R6L508 200-541): as above
Procedure: UV-visible spectra were collected by Varian Cary 50 spectrophotometer at a rate of 360 nm/min by using the 1 cm^−1 quartz cuvette. 4-(2-pyridylazo) resorcinol (PAR), a Zn(II) chelator, can strongly chelate free Zn^2+ to form Zn(PAR)2 complex, leading to an obvious migration of maximum absorbance peak from ca. 420 nm to ca. 500 nm. Herein, we incubated apo-MCR-1-S with 10 folds Zn^2+ in dialysis buffer (20 mM HEPES, pH=7.4, 50 mM NH4NO3). After 12 hour incubation, Zn(II)-MCR-1-S was separated into aliquots and then mixed with Ag(I), Au(I) or even their compounds at different molecular ratios. Dialysis buffer instead of these metal compounds was added into Zn(II)-MCR-1-S solution as negative controls. For positive control, 10-folds of Zn(II) were mixed with apo-MCR-1-S. By comparing the peak intensities among different groups, the amounts of released Zn(II) could be calculated. UV-visible spectra were recorded in a range of 220-600 nm at least 30 min later after incubation.

MCR-1-S = MCR-1-S (Escherichia coli, UniProt A0A0R6L508); conditions: ICP-MS
Chain of MCR-1-S (A0A0R6L508 200-541): as above
Procedure: The equilibrium dialysis was used to monitor the exact binding process. Apo-MCR-1-S was put in the inner side of dialysis membrane and outer side was supplemented with Au^+, Ag^+ or Zn^2+ at different molar ratios. Zn^2+ displacement analysis was performed by adding equivalents of Au^+ and Ag^+ into outer side of the membrane.

full length MCR-1 = target: T2, full length MCR-1 (Escherichia coli, UniProt A0A0R6L508); format: biochemical; conditions: MCR-1 pre-treated with 10 molar equivalents, 25° C. overnight
T2 construct: The full length MCR-1 was pre-treated with or without 10 molar equivalents
T2 sequence (A0A0R6L508 whole entry): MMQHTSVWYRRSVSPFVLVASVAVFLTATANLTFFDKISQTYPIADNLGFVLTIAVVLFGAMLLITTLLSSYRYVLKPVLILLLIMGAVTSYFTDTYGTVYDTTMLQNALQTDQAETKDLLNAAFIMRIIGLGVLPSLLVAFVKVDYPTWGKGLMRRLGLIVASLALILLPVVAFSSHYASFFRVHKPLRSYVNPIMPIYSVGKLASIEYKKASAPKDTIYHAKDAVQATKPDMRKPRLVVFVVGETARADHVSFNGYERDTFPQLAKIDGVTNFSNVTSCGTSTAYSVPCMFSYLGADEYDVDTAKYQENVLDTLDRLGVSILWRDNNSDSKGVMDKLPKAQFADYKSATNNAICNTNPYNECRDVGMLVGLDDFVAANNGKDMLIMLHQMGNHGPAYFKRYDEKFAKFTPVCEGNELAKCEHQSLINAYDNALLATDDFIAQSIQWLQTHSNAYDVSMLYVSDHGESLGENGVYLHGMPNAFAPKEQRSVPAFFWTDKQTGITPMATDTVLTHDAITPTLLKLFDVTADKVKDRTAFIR
Procedure: TLC plate was used to separate NBD-glycerol from the MCR-1 reaction mixture in a mobile phase [ethyl acetate:methanol:water, 7:2:1 (vol/vol)]. The reaction product was analyzed by exposing the TLC plate to UV light (455-485 nm) and visualizing the fluorescent signals with a gel imaging system. […] Cellular Thermal Shift Assay

Chain of apo-MCR-1-S (A0A0R6L508 200-541): as the sequence (A0A0R6L508 200-541) above

Row | Compound | Kd (apo-MCR-1-S) | decrease of cellular thermal stability of MCR-1, ΔTm (MCR-1) | MIC of colistin in combination with the compound (MCR-producing E. coli [1]; checkerboard, lowest colistin MIC reached with increasing compound) | FIC index (FICI) with colistin (MCR-producing E. coli [1]; synergism FICI≤0.5) | inhibition in combination with colistin (MCR-1-negative E. coli) | CFUs in liver and spleen [2] | green/red fluorescent ratio after treatment (S. flexneri (MCR-1+)) | mutant colonies (MCR-1-producing E. coli) | MPI of colistin (MPC/MIC) (MCR-1-producing E. coli) | mice rescued from death (E. coli CKE) | protection of mice from death (E. coli CKE) | fold rise of colistin MIC after 16 serial passages (MCR-producing E. coli [3]) | release of Zn(II) from MCR-1-S upon titration (Zn(II)-MCR-1-S) | replacement of protein bound metal by extraneous Zn(II) (MCR-1-S) | equivalents of metal that replaced about 3 molar equivalents of Zn(II) (MCR-1-S; equilibrium dialysis) | migration of NBD-glycerol (cleavage activity of MCR-1) (full length MCR-1)
1 | [Zn+2] [Zn(Ac)2, zinc(II) acetate] | ~2450 nM | – | – | – | – | – | – | – | – | – | – | – | – | – | – | –
2 | CC(=O)OC[C@H]1O[C@@H]([S-])[C@H](OC(C)=O)[C@@H](OC(C)=O)[C@@H]1OC(C)=O.CCP(CC)CC.[Au+] [auranofin] | – | 5.2 °C | 0.25 µg/mL | 0.375 | no inhibition was observed | ~10^5 cfu mL^−1 g^−1 | 6.1 | no mutant colony was observable | 0.5 | protect all the infected mice from death | failed to protect any of the mice from death | 4 folds | – | – | – | –
3 | [Ag+] [AgNO3, silver nitrate] | ~200 nM | – | – | – | no inhibition was observed | ~10^5 cfu mL^−1 g^−1 | – | no mutant colony was observable | 0.5 | 3 out of 6 | failed to protect any of the mice from death | – | completely released | could not be replaced | 16 equivalent | none of AgNO3, AuCl or Au(PEt3)Cl treatment group exhibited observable migration
